From patent publication US20210353749A1, “GUANABENZ AS AN ADJUVANT FOR IMMUNOTHERAPY” (UNIVERSITÉ CATHOLIQUE DE LOUVAIN, priority 2018, published 2021)

Assays:
[1] = test system: Mouse TCRP1A CD8+ T cells; assay: CD107 cytotoxicity assay (degranulation assay), mouse T cells; type: cell-based; details: 16 hours
Protocol: Mouse TCRP1A CD8^+ T cells: P1A-specific (TCRP1A) CD8^+ T cells were isolated from spleens and lymph nodes of TCRP1A mice using anti-mouse CD8a (Ly-2) MicroBeads (Miltenyi Biotec).
CD107 cytotoxicity assay (Degranulation assay): TCRP1A CD8^+ T cells were plated at 50,000 cells per well in a 96 U plate with different concentrations of guanabenz and incubated at 37° C. overnight prior to their use in the assay on the next day. On the day of the assay, the culture supernatant was removed from the cells and the cells were washed once with complete medium to remove the drug. The target cells L1210-P1A-B7.1 were added to the wells at a ratio of 1:1. Control wells containing either only T cells or target cells were also included for each plate. CD107a-APC was added to each well at the same time as addition of the target cells. The plate was then incubated at 37° C. for 90 minutes. At the end of the incubation period the cells were harvested and washed once with PBS. They were stained with anti-mouse CD8-Bv421 antibody for 15 minutes. The cells were then washed and resuspended in PBS and analyzed using FACS Fortessa flow cytometer. Human CD8^+ T cell degranulation was evaluated in a similar way. To induce CD8^+ T cell degranulation, T2 cells loaded with synthetic WT1126-134 peptide (10^6 T2 cells were incubated for 1 hour in 200 μL Optimem medium with 100 μmol/L synthetic peptide at 37° C.) were used as target cells.
T cells were incubated with guanabenz (10, 20, or 40 μM) for 16 h to 24 h as indicated. Mice received a daily intra-peritoneal injection of guanabenz (5 mg/kg) or vehicle (PBS) from the day of randomization (and the day of ACT when applicable) until the day of sacrifice.
CD107 cytotoxicity assay (Degranulation assay): the assay was carried out as described hereinabove (see Example 1) with different 20 μM guanabenz or different concentrations of alprenolol or sunitinib, as indicated.
T cells were incubated with 20 μM guanabenz for 16 h as indicated.
T cells were incubated with alprenolol (5 or 20 μM) for 16 h as indicated. […]

TiRP tumor = assay: Immunodeficient Rag1-/- TiRP+/+ mice, TiRP tumor; type: in vivo, mouse; details: Rag1-/- TiRP+/+ mice lacking T cells, 5 mg/kg i.p. daily from about 500 mm^3 (day 0) to day 15, vs control; FIG. 4
Protocol: FIG. 4 is a graph showing the tumor size in the immunodeficient Rag1^-/- TiRP^+/+ mice that were injected with 4-OH-Tamoxifen to induce a TiRP tumor. When the tumor reached 500 mm^3 (day 0), the tumor bearing mice were randomized and received daily injections of guanabenz (5 mg/kg, i.p.) or vehicle (PBS, i.p.) until the day of sacrifice (day 15). A fresh solution of […]-Tamoxifen was prepared by dissolving […]-Tamoxifen ([…]) in 100% ethanol and mineral oil (ratio 1:9) followed by 30-min sonication, and injected subcutaneously (2 mg/200 μL per mouse) in the neck area of gender-matched 7 weeks old TiRP mice. Tumor appearance was monitored daily and tumors were measured three times/week. Tumor volume (in mm^3) was calculated by the following formula: Volume=width^2×length/2. Tumor-bearing TiRP mice were randomized based on the tumor size when average volume was 400 mm^3, 500 mm^3 or 1000 mm^3 as indicated. T cells were incubated with guanabenz (10, 20, or 40 μM) for 16 h to 24 h as indicated. Mice received a daily intra-peritoneal injection of guanabenz (5 mg/kg) or vehicle (PBS) from the day of randomization (and the day of ACT when applicable) until the day of sacrifice. As a control, tumors were induced in immunodeficient TiRP mice lacking T cells due to the deletion of the Rag1 gene (Rag 1^-/- TiRP^+/+ mice). […]

B16F10 melanoma tumors = assay: B16F10 transplanted melanoma model; type: in vivo, mouse; details: guanabenz alone, 2.5 mg/kg i.p. daily from 7 days after inoculation, vs PBS and isotype; FIG. 9
Protocol: Gender and age matched CD57BL/6 wild-type mice were used in the B16F10 transplanted melanoma model.
Gender-matched, 7-9 weeks old CD57BL/6 wild-type mice were subcutaneously injected with 1 million of B16F10 tumor cells. Mice were randomized based on the tumor size one week after the injection of tumor cells. 7 days after tumor inoculation, daily injections of guanabenz (2.5 mg/kg, i.p.) or vehicle (PBS, i.p.) were administered to the mice. Mice then received 4 injections (intraperitoneally also referred to as i.p.) of a dose of 200 μg/mouse anti-PD-1 antibody (BioXcell, clone RMP1-14) or RatIgG2a isotype (clone 2A3, Bio-X-Cell) at 3-day intervals starting 1 day after guanabenz or vehicle administration.

Mouse NK cells = assay: In vitro NK cell function (CD107a degranulation); type: cell-based; details: guanabenz 20 μM, 16 hours, RMA-S target cells; FIG. 10
Protocol: Mouse NK cells: murine NK cells were isolated from mouse splenocytes using anti-CD49b magnetic beads. Murine NK cells were isolated from mouse splenocytes using anti-CD49b magnetic beads and were activated in vitro by co-incubation with irradiated RMA-S cells. 4 days after activation, they were collected and plated at 50,000 cells per well in a 96 U plate with 20 μM of guanabenz and incubated at 37° C. overnight prior to their use in the assay on the next day. On the day of the assay, the culture supernatant was removed from the cells and the cells were washed once with complete medium to remove the drug. The target cells (RMA-S cells) were added to the wells at a ratio of 1:1. Control wells containing either only NK cells or target cells were also included for each plate. CD107a-APC was added to each well at the same time as addition of the target cells. The plate was then incubated at 37° C. for 90 minutes. At the end of the incubation period the cells were harvested and washed once with PBS. They were stained with anti-mouse CD49b-PE antibody for 15 minutes. The cells were then washed and resuspended in PBS and analyzed using FACS Fortessa flow cytometer.

NC(N)=N/N=C/c1c(Cl)cccc1Cl [guanabenz, 2-[(E)-(2,6-dichlorophenyl)methylideneamino]guanidine]
T cell degranulation (FACS detection of CD107a) ([1]; guanabenz 20 μM, vs control, FIG. 12A): did significantly increase
T cell degranulation (FACS detection of CD107a) ([1]; guanabenz 10, 20 or 40 μM, co-culture with L1210-P1A-B7.1 target cells, FIG. 1A): increased
TiRP tumor growth (TiRP tumor): did not induce a decrease
growth of B16F10 melanoma tumors (B16F10 melanoma tumors): did significantly reduce
NK cell degranulation (FACS detection of CD107a) (Mouse NK cells): significantly increased
